In US20200371122A1, “BIOMARKER FOR SENESCENT CELLS” (Buck Institute for Research on Aging, priority 2017, published 2020):

Key:
[1] = test system: C57BL6/J and p16-3MR mice injured with bleomycin; assay: Bleomycin-induced pulmonary fibrosis in mice; format: in vivo, mouse
Procedure: RNA was extracted from cells or tissues using commercially available kits (Isolate II—Bioline for cells; Direct-zol—Zymo for tissues) according to the manufacturer's instructions. cDNA synthesis was performed using a High Capacity cDNA Reverse Transcription Kit (Thermo Fisher) according to the manufacturer's instructions. Quantitative PCR was performed on a LightCycler 480 II (Roche) using primers and probes designed for the Universal Probe Library. Primers and probes used for human transcripts were ACTB: 5′-CCAACCGCGAGAAGATGA (SEQ ID NO:1), 5′-TCCATCACGATGCCAGTG (SEQ ID NO:2), Probe #64; TUBA: 5′-cttcgtctccgccatcag (SEQ ID NO:3), 5′-ttgccaatctggacacca (SEQ ID NO:4), Probe #58; ALOX5: 5′-[…] (SEQ ID NO:5), 5′-[…] (SEQ ID NO:6), Probe #64; ALOX5AP: 5′-ggtctgcggggctacttt (SEQ ID NO:7), 5′-[…] (SEQ ID NO:8), Probe #18; ALOX12: 5′-[…] (SEQ ID NO:9), 5′-agccaggtcgtcaggag (SEQ ID NO:10), Probe #32; ALOX15: 5′-[…] (SEQ ID NO:11), 5′-[…] (SEQ ID NO:12), Probe #76; ALOX15B: 5′-[…] (SEQ ID NO:13), 5′-actgggaggcgaagaagg (SEQ ID NO:14), Probe #51; AKR1C1: 5′-catgcctgtcctgggattt (SEQ ID NO:15), 5′-[…] (SEQ ID NO:16), Probe #49; AKR1C2: 5′-ctatgcgcctgcagaggt (SEQ ID NO:17), 5′-[…] (SEQ ID NO:18), Probe #31; AKR1C3: 5′-[…] (SEQ ID NO:19), 5′-[…] (SEQ ID NO:20), Probe #78; CYSLTR2: 5′-[…] (SEQ ID NO:21), 5′-[…] (SEQ ID NO:22), Probe #18; DPEP1: 5′-gacgtcctgaggctggtg (SEQ ID NO:23), 5′-[…] (SEQ ID NO:24), Probe #9 (SEQ ID NO:25), ELOVL2: 5′-[…] (SEQ ID NO:26), 5′-[…] (SEQ ID NO:27), Probe #53; ELOVL4: 5′-catttggcccatggattc (SEQ ID NO:28), 5′-[…] (SEQ ID NO:29), Probe #31; ELOVL5: 5′-cccttccatgcgtccata (SEQ ID NO:30), 5′-[…] (SEQ ID NO:31), Probe #31; EPHX2: 5′-ttctgctggacaccctgaa (SEQ ID NO:32), 5′-[…] (SEQ ID NO:33), Probe #45; GPX4: 5′-ttcccgtgtaaccagttcg (SEQ ID NO:34), 5′-[…] (SEQ ID NO:35), Probe #36; LTA4H: 5′-ctgctctcacggtccagtc (SEQ ID NO:36), 5′-[…] (SEQ ID NO:37), Probe #64; LTBR2: 5′-[…] (SEQ ID NO:38), 5′-[…] (SEQ ID NO:39), Probe #33; LTC4S: 5′-[…] (SEQ ID NO:40), 5′-[…] (SEQ ID NO:41), Probe #18; PTGDS: 5′-[…] (SEQ ID NO:42), 5′-[…] (SEQ ID NO:43), Probe #36; PTGES: 5′-agagatgcctgcccacag (SEQ ID NO:44), 5′-tggccaccacgtacatctt (SEQ ID NO:45), Probe #4; PTGES2: 5′-[…] (SEQ ID NO:46), 5′-[…] (SEQ ID NO:47), Probe #49; PTGES3 (SEQ ID NO:48), 5′-[…] (SEQ ID NO:49), 5′-[…] (SEQ ID NO:50), Probe #48; PTGIS: 5′-[…] (SEQ ID NO:51), 5′-[…] (SEQ ID NO:52), Probe #45; PTGR1: 5′-atgatggggcagcaagtg (SEQ ID NO:53), 5′-cccatcagaaatggagtgc (SEQ ID NO:54), Probe #64; PTGS1: 5′-[…] (SEQ ID NO:55), 5′-gtggtggtccatgttcctg (SEQ ID NO:56), Probe #81; PTGS2: 5′-gatccccagggctcaaac (SEQ ID NO:57), 5′-[…] (SEQ ID NO:58), Probe #61; TBXAS1: 5′-[…] (SEQ ID NO:59), 5′-tgcctcccgtgtgaatct (SEQ ID NO:60), Probe #73; AREG: 5′-[…] (SEQ ID NO:61), 5′-[…] (SEQ ID NO:62), Probe #73; CCL2: 5′-AGTCTCTGCCGCCCTTCT (SEQ ID NO:63), 5′-GTGACTGGGGCATTGATTG (SEQ ID NO:64), Probe #40; CCL27: 5′-[…] (SEQ ID NO:65), 5′-gctgggtggcagtaggaat (SEQ ID NO:66), Probe #18; CXCL1: 5′-[…] (SEQ ID NO:67), 5′-[…] (SEQ ID NO:68), Probe #52; HGF: 5′-[…] (SEQ ID NO:69), 5′-[…] (SEQ ID NO:70), Probe #49; ILIA: 5′-[…] (SEQ ID NO:71), 5′-[…] (SEQ ID NO:72), Probe #6; IL1B: 5′-[…] (SEQ ID NO:73), 5′-[…] (SEQ ID NO:74), Probe #78; IL6: 5′-[…] (SEQ ID NO:75), 5′-gaaggcagcaggcaacac (SEQ ID NO:76), Probe #45; IL8: 5′-[…] (SEQ ID NO:77), 5′-atggttccttccggtggt (SEQ ID NO:78), Probe #72; IL10: 5′-[…] (SEQ ID NO:79), 5′-[…] (SEQ ID NO:80), Probe #67; MMP3: 5′-[…] (SEQ ID NO:81), 5′-[…] (SEQ ID NO:82), Probe #36; PDGFA: 5′-[…] (SEQ ID NO:83), 5′-[…] […]

[2] = test system: C57BL6/J and p16-3MR mice injured with bleomycin; assay: Bleomycin-induced pulmonary fibrosis in mice; format: in vivo, mouse; remark: listed apart in the source
IL-6 secretion = assay: IL-6 ELISA on non-senescent cells treated with prostaglandins; format: cell-based, human; conditions: 10 μM, 10 days
Procedure: Human fetal lung fibroblasts (IMR-90) were cultured in Dulbecco's modified eagle medium (DMEM) supplemented with 10% FBS and penicillin/streptomycin. LL 29 (AnHa) cells were obtained from the ATCC and growth to confluence using the ATCC protocol, but were subcultured as described for IMR-90 before initiation of all experiments. Quiescence was induced by replacing culture media with media containing 0.2% FBS. MCF-7 and MDA-MB-231 breast cancer cells were cultured in RPMI supplemented with 10% FBS and penicillin/streptomycin. All cells were cultured at 3% O2, and used between 25 and 40 population doublings. All cells were mycoplasma free.
3×10^4 cells in 12-well plates were treated as indicated in the text, and cultured in 0.5-1 ml serum-free DMEM for 24 hr. CM were collected and clarified at 2,000×g for 10 min. Supernatants were transferred to a tube; cells were trypsinized and counted. CM (2.5 μl) were analyzed by bead-based ELISAs (AlphaLISA, Perkin-Elmer) as instructed by the manufacturer and normalized to cell number.

[3] = bleomycin-treated animals, day 14, ELISA

Row | SMILES | RNA levels of p16INK4a and p21WAF1 in lungs ([1]; 14 days after bleomycin injury) | collagen expression (Col3a1 and Col4a1) ([1]; bleomycin-injured mice, 21 days after injury as printed) | mRNA levels of Alox5, Ltc4s, Ptgs2, Ptgds, and Ptges in lungs ([1]; bleomycin-injured mice, day 14) | histological staining of lungs with picrosirius red ([2]; 21 days after bleomycin) | collagen content (hydroxyproline) ([2]; 21 days after injury) | cysteinyl leukotrienes in bronchioalveolar lavage fluid (BALF) [2, 3] | prostaglandin E2 in bronchioalveolar lavage fluid (BALF) [2, 3] | phosphorylation of cPLA2 ([2]; bleomycin-treated mice, lung, day 14) | IL-6 secretion (IL-6 secretion)
1 | CC1(C)CCC(c2ccc(Cl)cc2)=C(CN2CCN(c3ccc(C(=O)NS(=O)(=O)c4ccc(N[C@H](CCN5CCOCC5)CSc5ccccc5)c(S(=O)(=O)C(F)(F)F)c4)cc3)CC2)C1 [ABT-263, 4-[4-[[2-(4-chlorophenyl)-5,5-dimethylcyclohexen-1-yl]methyl]piperazin-1--yl]-N-[4-[[(2R)-4-morpholin-4-yl-1-phenylsulfanylbutan-2-yl]amino]-3-(tri-fluoromethylsulfonyl)phenyl]sulfonylbenzamide] | significantly attenuated | reduced | lowered these levels to those of PBS-treated animals | attenuation of the fibrotic response | reduced | reduced | reduced | lowered | 
2 | CCCCC[C@H](O)/C=C/[C@H]1C=CC(=O)[C@@H]1C/C=C\CCCC(=O)O [PGA2] |  |  |  |  |  |  |  |  | elevated
